Experiments:
[1] = tested on: α-tubulin acetylation in mouse whole brain lysates; experiment: α-tubulin acetylation in whole brain lysates after single i.p. administration; type: in vivo; conditions: compound 73 5 mg/kg, compound 101 50 mg/kg, tubastatin A 10 mg/kg, 30 min, 1 h, 4 h
[2] = tested on: α-tubulin K40 acetylation in cortex, hippocampus, DRN, cerebellum; experiment: α-tubulin acetylation in brain regions after subchronic administration, WT and HDAC6 KO mice; type: in vivo, mouse
Experimental: Results are shown as percent change normalized to the vehicle treatment condition. The horizontal hard line depicts average and the dotted lines depict SEM of the vehicle treated wells. Representative Western blot images are presented. […] Representative Western blot images are presented. […] […] The changes in tubulin acetylation were measured in tissue lysates from cortex (ctx), hippocampus (Hpc), dorsal Raphe nucleus (DRN) and cerebellum (cb). The tubulin acetylation levels in drug-treated mice are expressed as percent change of the vehicle-treated mice of the corresponding genotype. The horizontal lines depict the average tubulin acetylation±SEM in the vehicle treated mice. The representative Western blot images show the changes induced by each drug treatment in the hippocampus (left column) and dorsal raphe (right column) of WT and HDAC6 KO mice.

mice = experiment: Open-field test; type: in vivo, mouse
[3] = tested on: NIH Swiss mice; C57BL/6J HDAC6 WT and KO mice; experiment: Tail suspension test (TST); type: in vivo, mouse; conditions: NIH Swiss mice
[4] = Body weight gain during chronic treatment; type: in vivo, mouse; conditions: 4 weeks of treatment
HDAC6 = target: T1, HDAC6 (Homo sapiens, UniProt Q9UBN7); experiment: HDAC enzyme assay, HDAC6
T1 sequence (Q9UBN7 1-1215): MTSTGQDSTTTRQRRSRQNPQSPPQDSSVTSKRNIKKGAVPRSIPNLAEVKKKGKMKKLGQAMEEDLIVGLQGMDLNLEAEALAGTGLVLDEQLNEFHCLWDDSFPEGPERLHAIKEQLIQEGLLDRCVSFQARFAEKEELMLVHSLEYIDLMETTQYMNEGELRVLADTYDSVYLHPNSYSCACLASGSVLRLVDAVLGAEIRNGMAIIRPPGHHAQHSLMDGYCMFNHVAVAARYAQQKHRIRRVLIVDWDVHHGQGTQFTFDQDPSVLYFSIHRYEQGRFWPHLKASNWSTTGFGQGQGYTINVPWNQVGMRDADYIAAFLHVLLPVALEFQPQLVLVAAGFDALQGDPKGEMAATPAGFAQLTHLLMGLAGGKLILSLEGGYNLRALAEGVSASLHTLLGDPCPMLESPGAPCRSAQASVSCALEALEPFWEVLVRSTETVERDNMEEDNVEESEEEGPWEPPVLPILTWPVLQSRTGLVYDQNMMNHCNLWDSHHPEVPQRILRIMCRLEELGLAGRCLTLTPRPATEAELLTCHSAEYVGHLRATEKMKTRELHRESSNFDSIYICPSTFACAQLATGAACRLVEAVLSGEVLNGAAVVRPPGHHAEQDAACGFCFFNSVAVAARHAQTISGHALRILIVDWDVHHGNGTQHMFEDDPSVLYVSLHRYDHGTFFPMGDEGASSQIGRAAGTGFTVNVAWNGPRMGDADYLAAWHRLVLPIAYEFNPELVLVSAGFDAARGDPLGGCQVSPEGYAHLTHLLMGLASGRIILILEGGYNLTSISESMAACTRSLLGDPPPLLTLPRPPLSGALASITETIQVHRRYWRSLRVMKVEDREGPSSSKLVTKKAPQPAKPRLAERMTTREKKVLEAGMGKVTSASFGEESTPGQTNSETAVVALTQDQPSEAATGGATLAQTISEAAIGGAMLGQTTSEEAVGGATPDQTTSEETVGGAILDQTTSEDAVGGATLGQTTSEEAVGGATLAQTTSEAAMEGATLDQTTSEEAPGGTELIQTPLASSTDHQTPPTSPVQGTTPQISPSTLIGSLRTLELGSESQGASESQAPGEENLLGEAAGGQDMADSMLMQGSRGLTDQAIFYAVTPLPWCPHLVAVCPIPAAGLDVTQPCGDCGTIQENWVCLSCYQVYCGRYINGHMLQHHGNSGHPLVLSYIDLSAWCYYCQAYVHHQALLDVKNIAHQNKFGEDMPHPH

## O=C(NO)c1cnc(NC2(c3cccc(F)c3)CCCCC2)nc1 [Compound 101, 2-((1-(3-fluorophenyl)cyclohexyl)amino)-N-hydroxypyrimidine-5-carboxamide]
[1]
  α-tubulin acetylation in whole brain lysates: significant increases
[2]; HDAC6 KO mice, identical treatment regimens
  α-tubulin acetylation over baseline levels: did not produce increases
[2]; wild-type mice, 24 h, 4 h, 30 m before sacrifice, compound 73 5 mg/kg, compound 101 50 mg/kg
  α-tubulin acetylation in cortex, hippocampus, DRN, cerebellum: significant increases
mice; acute, compounds 73, 101 50 mg/kg, tubastatin A 10 mg/kg
  exploratory activity in novel open-field arena: hyperlocomotor effects
mice; mouse, in vivo
  distance in the center of the open field: 419±73 beam breaks
mice; same doses (50 mg/kg)
  open-field exploration in neural cell selective HDAC6 KO mice: did not significantly alter
[3]; 5 mg/kg
  immobility in TST: No significant effect
[3]; 50 mg/kg i.p., 30 minutes
  immobility in TST: Significant reductions
[4]
  body weight gain: no significant effect
HDAC6
  IC50: 7.5 nM
  average selectivity over class I HDACs: 700 fold

— patent publication US20150250786A1, “PYRIMIDINE HYDROXY AMIDE COMPOUNDS AS PROTEIN DEACETYLASE INHIBITORS AND METHODS OF USE THEREOF” (THE TRUSTEES OF THE UNIVERSITY OF PENNSYLVANIA, priority 2012, published 2015)
